The text below walks through data of ChEMBL document CHEMBL1201862, “PubChem BioAssay data set” (2004).

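These data come from cells grown in 96-well plates and exposed to compound for 48 hours at five concentrations. Abbreviation: GI50, concentration required for 50% inhibition of growth.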 The source made the active and inactive calls. Rule as the data show it: active = GI50 up to about 1.1 µM and inactive = higher. Where only a bound is given, the exact number is not on record here.

Experiment in all cases: DTP human tumour cell line panel, 48 h
The test system of test [1] is OVCAR-3.
Test [2] has as its system EKVX.
Test [3] relates to NCI-H226.
The test system of test [4] is NCI/ADR-RES.
In test [5] the test system is UACC-62.
The subject of test [6] is HT-29.
The test system of test [7] is SK-MEL-5.
Test [8] concerns HCT-15.
The subject of test [9] is SN12C.
In test [10] the test system is M14.
The test system of test [11] is OVCAR-4.
Test [12] concerns IGROV-1.
Test [13] relates to MDA-MB-435.
In test [14] the test system is SW-620.
The subject of test [15] is COLO 205.
Test [16] deals with MCF7.
Test [17] concerns SF-539.
Test [18] deals with SNB-75.
The test system of test [19] is HCC 2998.

`NC(Cc1ccccc1)P(=O)(O)O` (centres undefined): the GI50 in test [1], in [2], in test [3], in test [4], in test [5] and in test [6] was > 100 µM (inactive) throughout. The GI50 in test [7] is > 100 µM (inactive); in test [8] it was > 100 µM; in [9], > 100 µM (inactive); in test [10] it was > 100 µM (inactive); in [11], > 100 µM (inactive); in [12], > 100 µM (inactive). For the same compound, the GI50 in [13] and in test [14] was > 100 µM (inactive) in each case.
Turning to `CCCC(C)NC(=O)c1ccc(N(C)Cc2cnc3nc(N)nc(N)c3n2)cc1` (centres undefined), the GI50 in test [1] is 21.4 µM (inactive); in [2] it was 56.9 µM (inactive); in test [3], 19.1 µM (inactive); in [4], > 100 µM (inactive); in [5] it was 6.3 µM (inactive); in [15], 28.2 µM (inactive). Also, the GI50 was 23.3 µM (inactive) in [16]; 17.6 µM (inactive) in test [6]; 10.1 µM (inactive) in test [7]; 26.4 µM in [8]; 44.6 µM (inactive) in [9]; 11.5 µM (inactive) in [10]. Moreover, the GI50 is 11 µM (inactive) in test [17]; 17.7 µM (inactive) in [12]; 24.4 µM (inactive) in [18]; 11.7 µM (inactive) in test [13]; 28.4 µM (inactive) in test [14].
With `c1ccc(CSC2(SCc3ccccc3)CCCCC2)cc1`, the GI50 in test [19], in test [1], in test [2], in test [3], in test [4] and in test [5] was > 10 µM (inactive) in each case. The GI50 in test [15] is > 10 µM (inactive); in test [16] it was > 10 µM (inactive); in test [6], > 10 µM (inactive); in test [7], > 10 µM (inactive); in [8], > 10 µM; in test [9], > 10 µM (inactive). Further, the GI50 in [10], in [17], in [11], in test [12], in test [18] and in test [14] was > 10 µM (inactive) throughout.
With `Nc1nc(Cl)cc(NCC2(CO)CCC(O)C2)n1` (centres undefined), the GI50 in test [1], in [2], in [3], in test [4], in test [5] and in test [15] was > 100 µM (inactive) throughout. Moreover, the GI50 in test [16] is > 100 µM (inactive); in test [6], > 100 µM (inactive); in test [7], > 100 µM (inactive); in test [8], > 100 µM; in test [9], > 100 µM (inactive); in test [10] it was > 100 µM (inactive). Besides, the GI50 in test [17], in test [11], in [12], in test [18], in [13] and in test [14] was > 100 µM (inactive) throughout.
As to `CCCN(CCC)C(=O)c1c(N2CCN(C)CC2)c2cccnc2n2c(C)cnc12`, the GI50 in [1] was 94.8 µM (inactive); in test [2], > 100 µM (inactive); in test [3], > 100 µM (inactive); in test [4], > 100 µM (inactive); in test [5] it was > 100 µM (inactive); in [15] it was > 100 µM (inactive). The GI50 in test [16] was > 100 µM (inactive); in [6], > 100 µM (inactive); in test [7] it was > 100 µM (inactive); in test [8], > 100 µM; in [9], > 100 µM (inactive); in test [10], > 100 µM (inactive). Further, the GI50 was > 100 µM (inactive) in [17]; > 100 µM (inactive) in test [11]; > 100 µM (inactive) in [12]; > 100 µM (inactive) in [18]; > 100 µM (inactive) in [13]; 17.5 µM (inactive) in test [14].
Turning to `Cc1ccc2c(c1)nc(N)n[n+]2[O-]`, the GI50 in [1], in test [2], in [3], in test [4], in test [5] and in test [15] was > 100 µM (inactive) in each case. For the same compound, the GI50 is > 100 µM (inactive) in [16]; > 100 µM (inactive) in [6]; > 100 µM (inactive) in test [7]; > 100 µM in test [8]; > 100 µM (inactive) in [9]; > 100 µM (inactive) in test [10]. In addition, the GI50 in [17] is > 100 µM (inactive); in test [11], > 100 µM (inactive); in [12], > 100 µM (inactive); in test [18], 85.9 µM (inactive); in test [13], > 100 µM (inactive); in test [14], > 100 µM (inactive).
With `COc1ccccc1C1c2cc3c(cc2OC(N2CCOCC2)C1C)OCO3` (centres undefined), the GI50 was 13 µM (inactive) in test [1]; 20.6 µM (inactive) in test [2]; 22.9 µM (inactive) in [4]; 14.7 µM (inactive) in test [5]; > 10 µM (inactive) in test [15]; 23.6 µM (inactive) in test [16]. Also, the GI50 was 16.9 µM (inactive) in test [6]; 15.4 µM (inactive) in test [7]; 16.7 µM in test [8]; 17.7 µM (inactive) in [9]; 17.5 µM (inactive) in test [10]; 14.2 µM (inactive) in test [17]. The GI50 was 27.2 µM (inactive) in test [12], 8.04 µM (inactive) in [13] and 17.7 µM (inactive) in test [14].
`CC1CC(N2CCOCC2)=Nc2ccccc2N1Cc1ccccc1` (centres undefined): the GI50 in test [1] is 43.9 µM (inactive); in test [2] it was 90.6 µM (inactive); in test [3], 51.2 µM (inactive); in test [4], 73.8 µM (inactive); in test [5] it was 44.6 µM (inactive); in [15], 30.9 µM (inactive). Moreover, the GI50 was 38.7 µM (inactive) in test [6]; 36.3 µM (inactive) in [7]; > 100 µM in [8]; > 100 µM (inactive) in test [9]; > 100 µM (inactive) in test [10]; 56.2 µM (inactive) in [11]. Further, the GI50 was 25.6 µM (inactive) in test [12], 56.2 µM (inactive) in [13] and > 100 µM (inactive) in test [14].
As for `CCN(CC)Cc1cc(Nc2ccnc3ccc4c(nnn4C)c23)ccc1O`, the GI50 in test [19] was 1.75 µM (inactive); in test [1] it was 19.3 µM (inactive); in [2], 26.7 µM (inactive); in test [4] it was 19 µM (inactive); in test [5] it was 15 µM (inactive); in [15], 6.7 µM (inactive). Further, the GI50 in test [16] is 4.03 µM (inactive); in test [6] it was 5.56 µM (inactive); in [7], 12.7 µM (inactive); in test [8] it was 3.67 µM; in [9], 6.1 µM (inactive); in test [10], 15.3 µM (inactive). For the same compound, the GI50 was 5.33 µM (inactive) in test [17], 7.6 µM (inactive) in test [11], 15.4 µM (inactive) in test [12] and 5.89 µM (inactive) in [18].
As for `COc1ccc2c(C(=O)c3c(C)n(CCN4CCOCC4)c4ccccc34)cccc2c1`, the GI50 in [1] is 12.1 µM (inactive); in test [2], 31.6 µM (inactive); in [3], > 100 µM (inactive); in test [4], 16.9 µM (inactive); in [5] it was 18.2 µM (inactive); in test [15], 12.2 µM (inactive). In addition, the GI50 in [16] was 11.3 µM (inactive); in test [6] it was 21 µM (inactive); in test [7] it was 17.5 µM (inactive); in test [8], 21.3 µM; in [9] it was 71 µM (inactive); in test [10], 22.3 µM (inactive). Moreover, the GI50 in test [17] was 84.3 µM (inactive); in test [11] it was 21.2 µM (inactive); in [12] it was 36.6 µM (inactive); in test [13] it was 5.6 µM (inactive); in test [14], 1.27 µM (inactive).
Regarding `COc1ccc(NC(C)=O)c(C(O)CCNC(C)=O)c1` (centres undefined), the GI50 in test [1], in test [2], in test [3], in [4], in test [5] and in test [15] was > 100 µM (inactive) throughout. Moreover, the GI50 in [16] was > 100 µM (inactive); in test [6] it was > 100 µM (inactive); in test [7] it was > 100 µM (inactive); in test [8], > 100 µM; in [9], > 100 µM (inactive); in [10], > 100 µM (inactive). In addition, the GI50 in test [17], in test [11], in [12], in test [18], in test [13] and in [14] was > 100 µM (inactive) in each case.
As to `C=C(C)C1CCC2(CO)C(O)CC3(C)C(CCC4C5(C)CCC(O)C(C)(C)C5CCC43C)C12` (centres undefined), the GI50 was 11.4 µM (inactive) in test [1]; 13.9 µM (inactive) in test [2]; 34.6 µM (inactive) in test [3]; 15.3 µM (inactive) in test [4]; 11.6 µM (inactive) in test [16]; 6.53 µM (inactive) in [6]. Also, the GI50 in [7] was 5.14 µM (inactive); in test [8], 11.9 µM; in test [9], 16.5 µM (inactive); in test [10] it was 18.6 µM (inactive); in test [17], 12.7 µM (inactive); in test [12], 11.7 µM (inactive). Besides, the GI50 is 3.7 µM (inactive) in test [18], 7.74 µM (inactive) in [13] and 21.8 µM (inactive) in test [14].

As a reminder, the GI50 is the concentration at which growth is held to half of that of the control.
